Experimental findings from patent US6812230B2, “Non-peptide CCR1 receptor antagonists for the treatment of progressive renal fibrosis” (Schering Aktiengesellschaft, priority 2001, dated 2004) are described below.

One assay relates to collagen I protein. As to the kind of experiment: Mouse UUO model: collagen I protein expression by Western blotting. Particulars: 10 days following UUO (UUO BX 1-10 d), Western blot. It counts as in vivo, C57BL/6 mice. Here is the method: (§1) Contralateral kidneys served as intraindividual controls.
From each mouse, a specimen of both kidneys was snap frozen in liquid nitrogen and stored at −80° C. Kidneys were homogenized in RIPA buffer (50 mM Tris-HCl, pH 8.0, 1% Nonidet P40, 0.5% sodium deoxycholate, 150 mM NaCl, 0.1% SDS, complete Protease-inhibitor tablet (Roche)). Extracted proteins were boiled in loading buffer for 10 minutes, resolved by 8% SDS-PAGE under reducing conditions and transferred to an Immobilon-P membrane (Millipore). After blocking, the filter was incubated with the rabbit polyclonal anti-collagen I antibody (1:1000 in blocking solution, Chemicon) and immune complexes were visualized using horseradish peroxidase-conjugated goat anti-rabbit antibody (1:5000 in blocking solution, Jackson ImmunoResearch) and then processed for detection by enhanced chemiluminescence (ECL, Amersham Pharmacia).

Assay [1] concerns renal CCR1, CCR2, CCR5 and collagen I mRNA. Briefly: Mouse UUO model: renal chemokine receptor and collagen I mRNA expression by real-time quantitative RT-PCR. It is filed as in vivo, C57BL/6 mice. Particulars: 10 days following UUO. The procedure: as §1
From each mouse, a specimen of both kidneys was snap frozen in liquid nitrogen and stored at −80° C. Total RNA was prepared as described in Chomczynski, P. and Sacci, N., Anal. Biochem. (1987), Vol. 162, pp. 156-159. The RNA pellet was air-dried, dissolved in DEPC-treated water, and stored at −80° C. One μg of total RNA was subjected to random-primed (Hexamer, Roche) reverse transcription at 42° C. for 1 hour using a modified MMLV reverse transcriptase (Superscript, Life Technologies). Real time RT-PCR was performed on a TaqMan ABI 7700 Sequence Detection System (PE Biosystems) using a heat-activated Taq DNA polymerase (Amplitaq Gold, PE Biosystems). Thermal cycler conditions contained holds at 50° C. for 2 minutes and 95° C. for 10 minutes followed by 40 cycles of 95° C. for 15 seconds and 60° C. for 60 seconds. GAPDH was used as reference gene. The following oligonucleotide primers (300 nM) and probes (100 nM) (PE Biosystems) were used: (a) murine collagen 1α1 (gb X54876; bp 1984-2102); forward primer: 5′-[…]-3′ (SEQ ID NO: 1); reverse primer: 5′-[…]-3′ (SEQ ID NO: 2); internal fluorescence labeled probe (FAM): 5′-[…]-3′ (SEQ ID NO: 3); (b) murine GAPDH (gb M32599, bp 730-836); forward primer: 5′-[…]-3′ (SEQ ID NO: 4); reverse primer: 5′-[…]-3′ (SEQ ID NO: 5); internal fluorescence labeled probe (VIC): 5′-[…]-3′ (SEQ ID NO: 6); (c) murine CCR1 (gb NM_009912, bp 487-586); forward primer: 5′-[…]-3′ (SEQ ID NO: 7); reverse primer: 5′-[…]-3′ (SEQ ID NO: 8); internal fluorescence labeled probe (T1): 5′-[…]-3′ (SEQ ID NO: 9); (d) murine CCR2 (gb NM_009915, bp 984-1095); forward primer: 5′-[…]-3′ (SEQ ID NO: 10); reverse primer: 5′-[…]-3′ (SEQ ID NO: 11); internal fluorescence labeled probe (T1, FAM): 5′-[…]-3′ (SEQ ID NO: 12); and (e) murine CCR5 (gb D83648, bp 1065-1191); forward primer: 5′-[…]-3′ (SEQ ID NO: 13); reverse primer: 5′-[…]-3′ (SEQ ID NO: 14); internal fluorescence labeled probe (T1, FAM): 5′-[…]-3′ (SEQ ID NO: 15).

As to `C[C@@H]1CN(Cc2ccc(F)cc2)CCN1C(=O)COc1ccc(Cl)cc1NC(N)=O` [BX471, (2R)-1-((4-chloro-2-(ureido)phenoxy)methyl)carbonyl-2-methyl-4-(4-fluorobenzyl)piperazine], the “collagen I protein in renal extracts from the obstructed kidneys vs vehicle” value in the assay with collagen I protein is reported as “decrease”. Further, the “renal collagen I mRNA expression in obstructed kidneys vs vehicle” value in assay [1] (p<0.05) is listed as “significantly reduced”. In assay [1] (p=0.003), the “renal CCR5 mRNA expression in obstructed kidneys vs vehicle” value is listed as “significantly reduced”. Further, the “renal CCR1 mRNA expression in obstructed kidneys vs vehicle” value in assay [1] (p=0.005) is “significantly reduced”. In assay [1] (p=0.07), the “renal CCR2 mRNA expression in obstructed kidneys vs vehicle” value was “reduced, although this decrease did not reach statistical significance”.
